Experimental data reported in PubChem BioAssay (NCI).
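Each compound was tested at five concentrations against cells in 96-well plates for 48 hours. The concentration for 50% growth inhibition is given as GI50. TGI is the concentration that stops growth completely.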 Where a SMILES comes first, the peptide text is derived from it. [ ]: non-standard residue; d: D form. The star is where a group is joined. ξ: configuration not given here. Boc = CC(C)(C)OC(=O)*; ξV = CC(C)C(N)C(=O)O; OBn = c1ccc(CO*)cc1

Key:
Assay in all cases: NCI tumour cell line growth inhibition, 48 h
SNB-19 CNS = system: SNB-19 CNS
SF-268 CNS = system: SF-268 CNS
CCRF-CEM leukemia = system: CCRF-CEM leukemia
NCI-H522 lung = system: NCI-H522 lung
NCI-H23 lung = system: NCI-H23 lung
HL-60(TB) leukemia = system: HL-60(TB) leukemia
MOLT-4 leukemia = system: MOLT-4 leukemia
HCT-116 colon = system: HCT-116 colon
K-562 leukemia = system: K-562 leukemia
OVCAR-5 ovarian = system: OVCAR-5 ovarian
ACHN renal = system: ACHN renal
RPMI-8226 leukemia = system: RPMI-8226 leukemia
UO-31 renal = system: UO-31 renal
786-0 renal = system: 786-0 renal
A549 NSCLC = system: A549 NSCLC
RXF 393 renal = system: RXF 393 renal
OVCAR-4 ovarian = system: OVCAR-4 ovarian
U251 CNS = system: U251 CNS
MCF7 breast = system: MCF7 breast
M14 melanoma = system: M14 melanoma
DU-145 prostate = system: DU-145 prostate
HOP-62 NSCLC = system: HOP-62 NSCLC
IGROV1 ovarian = system: IGROV1 ovarian
UACC-62 melanoma = system: UACC-62 melanoma
HT29 colon = system: HT29 colon
MDA-MB-231 breast = system: MDA-MB-231 breast
SN12C renal = system: SN12C renal
PC-3 prostate = system: PC-3 prostate
SK-OV-3 ovarian = system: SK-OV-3 ovarian
BT-549 breast = system: BT-549 breast
OVCAR-8 ovarian = system: OVCAR-8 ovarian
OVCAR-3 ovarian = system: OVCAR-3 ovarian
T-47D breast = system: T-47D breast
SK-MEL-5 melanoma = system: SK-MEL-5 melanoma
TK-10 renal = system: TK-10 renal
HCT-15 colon = system: HCT-15 colon
NCI-H226 lung = system: NCI-H226 lung
SF-539 CNS = system: SF-539 CNS
NCI/ADR-RES ovarian = system: NCI/ADR-RES ovarian
SNB-75 CNS = system: SNB-75 CNS
HS 578T breast = system: HS 578T breast
SK-MEL-28 melanoma = system: SK-MEL-28 melanoma
HOP-92 NSCLC = system: HOP-92 NSCLC
SK-MEL-2 melanoma = system: SK-MEL-2 melanoma
CAKI-1 renal = system: CAKI-1 renal
SW-620 colon = system: SW-620 colon
HCC-2998 colon = system: HCC-2998 colon
EKVX NSCLC = system: EKVX NSCLC
NCI-H460 lung = system: NCI-H460 lung
A498 renal = system: A498 renal
SF-295 CNS = system: SF-295 CNS
LOX IMVI melanoma = system: LOX IMVI melanoma
KM12 colon = system: KM12 colon
COLO 205 colon = system: COLO 205 colon

Compound: O=c1cc(-c2ccc3c(c2)OCCO3)oc2cc(Cl)ccc12
- GI50 (SNB-19 CNS): 3620 nM
- TGI (SNB-19 CNS): > 100000 nM
- GI50 (SF-268 CNS): 3370 nM
- TGI (SF-268 CNS): > 100000 nM
- GI50 (CCRF-CEM leukemia): > 100000 nM
- TGI (CCRF-CEM leukemia): > 100000 nM
- GI50 (NCI-H522 lung): 2970 nM
- TGI (NCI-H522 lung): > 100000 nM
- GI50 (NCI-H23 lung): 5670 nM
- TGI (NCI-H23 lung): > 100000 nM
- GI50 (HL-60(TB) leukemia): > 100000 nM
- TGI (HL-60(TB) leukemia): > 100000 nM
- GI50 (MOLT-4 leukemia): > 100000 nM
- TGI (MOLT-4 leukemia): > 100000 nM

Compound: CC(C)C(NC(=O)CNC(=O)OC(C)(C)C)C(=O)NCC(=O)OCc1ccccc1 (stereo not drawn) (Boc-Gly-[ξV]-Gly-OBn)
- GI50 (HCT-116 colon): 27.3 µg/mL
- TGI (HCT-116 colon): 98.5 µg/mL

Compound: CNC(=O)c1cc(Oc2ccc3c(c2)sc2nc(-c4ccc(N)cc4)cn23)ccn1
- GI50 (K-562 leukemia): 91.1 nM
- TGI (K-562 leukemia): > 100000 nM
- TGI (OVCAR-5 ovarian): > 100000 nM
- GI50 (ACHN renal): 750 nM
- TGI (ACHN renal): > 100000 nM
- GI50 (RPMI-8226 leukemia): 320 nM
- TGI (RPMI-8226 leukemia): 26300 nM
- GI50 (UO-31 renal): 467 nM
- TGI (UO-31 renal): > 100000 nM
- GI50 (786-0 renal): 433 nM
- TGI (786-0 renal): > 100000 nM
- GI50 (A549 NSCLC): 474 nM
- TGI (A549 NSCLC): > 100000 nM
- GI50 (RXF 393 renal): 297 nM
- TGI (RXF 393 renal): > 100000 nM
- GI50 (OVCAR-4 ovarian): 2490 nM
- TGI (OVCAR-4 ovarian): > 100000 nM
- GI50 (U251 CNS): 194 nM
- TGI (U251 CNS): > 100000 nM
- GI50 (MCF7 breast): 128 nM
- TGI (MCF7 breast): > 100000 nM
- GI50 (M14 melanoma): 162 nM
- TGI (M14 melanoma): > 100000 nM
- GI50 (SNB-19 CNS): 405 nM
- TGI (SNB-19 CNS): > 100000 nM
- GI50 (DU-145 prostate): 344 nM
- TGI (DU-145 prostate): > 100000 nM
- GI50 (HOP-62 NSCLC): 346 nM
- TGI (HOP-62 NSCLC): > 100000 nM
- GI50 (IGROV1 ovarian): 609 nM
- TGI (IGROV1 ovarian): > 100000 nM
- GI50 (SF-268 CNS): 791 nM
- TGI (SF-268 CNS): > 100000 nM
- GI50 (UACC-62 melanoma): 98.2 nM
- TGI (UACC-62 melanoma): > 100000 nM
- GI50 (CCRF-CEM leukemia): 200 nM
- TGI (CCRF-CEM leukemia): > 100000 nM
- GI50 (HT29 colon): 197 nM
- TGI (HT29 colon): 802 nM
- GI50 (MDA-MB-231 breast): 726 nM
- TGI (MDA-MB-231 breast): > 100000 nM
- GI50 (HCT-116 colon): 211 nM
- TGI (HCT-116 colon): > 100000 nM
- GI50 (SN12C renal): 759 nM
- TGI (SN12C renal): > 100000 nM
- GI50 (PC-3 prostate): 324 nM
- TGI (PC-3 prostate): > 100000 nM
- GI50 (SK-OV-3 ovarian): 470 nM
- TGI (SK-OV-3 ovarian): > 100000 nM
- GI50 (BT-549 breast): 500 nM
- TGI (BT-549 breast): 51600 nM
- GI50 (OVCAR-8 ovarian): 390 nM
- TGI (OVCAR-8 ovarian): > 100000 nM
- GI50 (OVCAR-3 ovarian): 198 nM
- TGI (OVCAR-3 ovarian): 670 nM
- GI50 (T-47D breast): 397 nM
- TGI (T-47D breast): 57600 nM
- GI50 (SK-MEL-5 melanoma): 222 nM
- TGI (SK-MEL-5 melanoma): 11500 nM
- GI50 (TK-10 renal): 278 nM
- TGI (TK-10 renal): > 100000 nM
- GI50 (NCI-H522 lung): 165 nM
- TGI (NCI-H522 lung): 573 nM
- GI50 (HCT-15 colon): 122 nM
- TGI (HCT-15 colon): > 100000 nM
- GI50 (NCI-H226 lung): 2010 nM
- TGI (NCI-H226 lung): > 100000 nM
- GI50 (SF-539 CNS): 324 nM
- TGI (SF-539 CNS): > 100000 nM
- GI50 (NCI/ADR-RES ovarian): 211 nM
- TGI (NCI/ADR-RES ovarian): > 100000 nM
- GI50 (SNB-75 CNS): 286 nM
- TGI (SNB-75 CNS): > 100000 nM
- GI50 (HS 578T breast): 224 nM
- TGI (HS 578T breast): > 100000 nM
- GI50 (SK-MEL-28 melanoma): 4990 nM
- TGI (SK-MEL-28 melanoma): > 100000 nM
- GI50 (HOP-92 NSCLC): 5980 nM
- TGI (HOP-92 NSCLC): > 100000 nM
- GI50 (SK-MEL-2 melanoma): 332 nM
- TGI (SK-MEL-2 melanoma): > 100000 nM
- GI50 (CAKI-1 renal): 329 nM
- TGI (CAKI-1 renal): > 100000 nM
- GI50 (SW-620 colon): 153 nM
- TGI (SW-620 colon): > 100000 nM
- GI50 (NCI-H23 lung): 491 nM
- TGI (NCI-H23 lung): > 100000 nM
- GI50 (HCC-2998 colon): 537 nM
- TGI (HCC-2998 colon): > 50500 nM
- GI50 (EKVX NSCLC): 458 nM
- TGI (EKVX NSCLC): > 100000 nM
- GI50 (NCI-H460 lung): 289 nM
- TGI (NCI-H460 lung): 20600 nM
- GI50 (A498 renal): 76.2 nM
- TGI (A498 renal): 650 nM
- GI50 (HL-60(TB) leukemia): 108 nM
- GI50 (MOLT-4 leukemia): 260 nM
- TGI (MOLT-4 leukemia): > 60800 nM
- GI50 (SF-295 CNS): 104 nM
- TGI (SF-295 CNS): > 100000 nM
- GI50 (LOX IMVI melanoma): 904 nM
- TGI (LOX IMVI melanoma): > 100000 nM
- GI50 (KM12 colon): 196 nM
- TGI (KM12 colon): > 100000 nM
- GI50 (COLO 205 colon): 305 nM
- TGI (COLO 205 colon): 27200 nM
